What was measured:
[1] = system: PDE5; design: method as in PMID 29656464; conditions: Figure 1; cited from earlier work
[2] = molecular target: T1, PDE5A (Homo sapiens, UniProt O76074); experiment: Phosphodiesterase 5 HTRF cGMP assay; assay type: biochemical
T1 construct: purchased BPS Bioscience, San Diego, CA, USA
Method: All the synthesized acridine derivatives were tested for their in vitro ability to inhibit PDE5A at a screening dose of 10 µM.
The enzyme activities of phosphodiesterase 5 (PDE5) were measured using an HTRF cGMP assay kit (Cisbio, Codolet, France). […] Afterward, the HTRF reagent (cGMP-d2 and anti-cGMP-cryptate) was added for 1 h at 25 °C, and PDE activity was assayed on an HTRF reader (Tecan Infinite F200 Pro).

[3] = system: HCT-116; experiment: MTT cell proliferation assay, HCT-116; conditions: for % Inhibition at 10 µM: 72 h MTT, means ± SD
[4] = system: CCD-966SK; experiment: MTT cell proliferation assay, CCD-966SK; conditions: CCD966SK skin fibroblast; 10 µM; 72 h MTT
Method: In the MTT assay, 96-well culture plates were used. A total of 7 × 10^4 cells per well were seeded, and test materials were added to the cells at various concentrations [47, 48]. Human cancer and non-cancer cell lines were purchased commercially from the American Type Culture Collection (ATCC). After 72 h, the cytotoxicity of the compounds and paclitaxel (as a positive control group) was detected using the MTT method (thiazolyl blue tetrazolium bromide, Sigma-M2128). Absorbance values at 570 and 620 nm (OD = OD570–OD620) were measured using an ELISA reader (Anthos Labtec Instruments, Salzburg, Austria).

Compound: c1ccc(CNc2ncnc3sc4c(c23)CCCCC4)cc1 [B]
- IC50 [1]: 0.19 µM

Compound: c1ccc(CNc2ncnc3sc4c(c23)CCC4)cc1 [C]
- IC50 [1]: 0.42 µM

Compound: c1csc(CNc2c3ccccc3nc3ccccc23)c1 [Compound 15, Acridin-9-yl-thiophen-2-ylmethyl-amine]
- IC50 ([2]; means ± S.D. (n = 4), read-out: PDE5 IC50): 6.43 ± 1.3 µM
- inhibition at 10 µM ([2]; read-out: PDE5 % Inhibition at 10 μM): 58.4 ± 1.47%
- melting point: 121 to 123 °C
- % Inhibition at 10 µM [3]: 39.65 ± 4.72%
- % Inhibition at 10 µM [4]: 11.54 ± 0.04%

Compound: N.N.[Cl][Pt][Cl] [cisplatin, reference compound]
- % Inhibition at 10 µM [3]: 83.00 ± 0.38%
- IC50 ([3]; read-out: IC50 μM, 72 h MTT, means ± SD, three experiments): 3.62 ± 0.19 µM
- % Inhibition at 10 µM [4]: 38.73 ± 5.19%

Source: PMC9866191, “Novel 9-Benzylaminoacridine Derivatives as Dual Inhibitors of Phosphodiesterase 5 and Topoisomerase II for the Treatment of Colon Cancer” (Molecules, 2023)
